Three compounds from US9820483B2, “Microbial composition” (Rohm and Haas Company, priority 2011, dated 2017) can be followed below.

SMILES strings stand for the structures. Where two headings read alike, the source gives them in different places. Some results are limits rather than exact numbers.

The subject of assay [1] is Staphylococcus aureus (10788 strain). The assay is described as follows: Antimicrobial efficacy of actives against S. aureus in water, 15 seconds contact, NMBS. The class given is cell-based. The settings on record: for NMBS: 15 s. The method, then:
Selected materials were also tested against a representative Gram positive Staphylococcus aureus.
The following assay describes the testing of 8 materials using 6 dilutions across half of a 96-well micro titre plate (MTP). Using this approach it is possible to assay 16 actives (without replicates) with one full dilution plate, replicating this set up in two halves of the plate columns, 1-6 and 7-12.
Bacterial stock (30 μl) was then added to the prepared 270 μl of the solution of actives in the Screening Plate and mixed, using a multichannel pipette with 8 tips to aspirate and dispense the same volume of bacterial stock in parallel to 8 wells in rows A-H. After a contact time of 15 seconds, the mixtures were quenched by transferring 30 μl volumes of the mixtures into the 270 μl D/E neutralising solution in the prepared dilution plate, using aspiration to mix. After exactly 5 minutes in the D/E neutralising solution, […] were transferred from column 1 to column 2 of the Dilution MTP and mixed, before transferring further 30 μl volumes from column 2 into column 3. This process was repeated serially diluting the bacteria across the plate to column 6.
30 μl volumes from each well in the Dilution MTP were transferred onto pre-labelled segment of Tryptone Soya Agar (TSA) plates starting from the lowest bacterial concentration (highest dilution, column 6) to the highest bacterial concentration (column 1). The TSA plates were allowed to stand for ca. 2 hours so that the 30 μl inocula spots could dry and the plates were then inverted and incubated overnight at 37° C. before enumerating the bacterial colonies at the labelled dilutions to determine the effects of the actives on bacterial growth.
Mean bacterial survival numbers NMBS (expressed in Log CFU/ml) are obtained by first determining the segment of the TSA plate where the number of bacterial colonies is countable. From the colony number in this segment. NMBS is calculated by the formula: NMBS=log {Ncol·10^DF·100/3} Here, Ncol is the colony count, and DF is the dilution factor taken from the MTP-well corresponding to the TSA plate segment (i.e. DF may range from 1 for the quench, to 6 for the highest dilution). The factor 100/3 is a conversion factor from the volume of the inocula spot to one milliliter.
Every assay test was performed in triplicate.
Thus, a value of NMBS as of about 7 corresponds to a count of about […] from the fifth dilution well, i.e. with DF=5. Such a count of about 7 is generally observed when bacteria are exposed to non-biocidal materials. In case no surviving colonies are observed in any segment of the TSA plate, this is interpreted as complete kill and a value of NMBS=0 is reported.
S. aureus Bacterial stock was prepared as shown below and the antibacterial efficacy of the active was carried out as explained earlier for E. Coli.
An overnight culture of Staphylococcus aureus (10788 strain) was inoculated onto a Tripticase Soy Agar (TSA) plate and grown for ca. 18 hrs at 37° C. The culture of S. aureus was washed from the plate using sterile saline (0.85% NaCl) solution and a sterile spreader and suspended in 50 ml saline. This suspension was separated into equal volumes and centrifuged at 4000 rpm for 15 minutes. Following centrifugation the pellet was re-suspended in saline to give a final concentration of 0.35 OD620 equivalent to about 10^8 cells per milliliter for this particular organism. Here. OD620 indicates the absorbance of a sample in a cuvette of 1.0 cm path length at a wavelength of 620 nm. This bacterial stock was used for assaying against antimicrobial actives (in triplicate).

A further assay relates to E. coli ATCC #10536. The assay is described as follows: Synergy test: high resolution MBC microtiter plate assay in phosphate buffer containing 35% dipropylene glycol, 15 seconds contact. It is filed as cell-based, Escherichia coli. The settings on record: E. coli 10536, complete kill in 15 seconds, phosphate buffer with 35% DPG. The text has this: One measure of synergy is the industrially accepted method described by Kull, F. C.; Eisman. P. C.; Sylwestrowicz, H. D. and Mayer, R. L., in Applied Microbiology 9:538-541 (1961), using the ratio determined by the formula: Qa/QA÷Qb/QB=Synergy Index (“SI”) wherein: QA=concentration of compound A (first component) in percent, acting alone, which produced an end point (MBC of Compound A). […]=concentration of compound A in percent, in the mixture, which produced an end point. QB=concentration of compound B (second component) in percent, acting alone, which produced an end point (MBC of Compound B). Qb=concentration of compound B in percent, in the mixture, which produced an end point.
When the sum of Qa/QA and Qb/QB is greater than one, antagonism is indicated. […] The lower the SI, the greater is the synergy shown by that particular mixture. The minimum biocidal concentration (MBC) of a microbicide is the lowest concentration tested under a specific set of conditions that provides complete kill of the tested microorganisms.
Synergy tests were conducted using standard microtiter plate assays with phosphate buffer containing 35% dipropylene glycol (DPG). In this method, a wide range of combinations of chemicals was tested by conducting high resolution MBC assays of Component (A) in the presence of various concentrations of Component (B). High resolution MBCs were determined by adding varying amounts of microbicide to one column of a microtiter plate and doing subsequent ten-fold dilutions using an automated liquid handling system to obtain a series of closely spaced endpoints. The MBC plate was inoculated one column at a time with the test microorganism. An aliquot of the inoculated well was transferred at 15 seconds to a plate containing a neutralizing agent (D/E Neutralizing Broth), mixed and held for 5 minutes before being transferred to a growth plate containing trypticase soy broth (TSB). The TSB plate was incubated at 37° C. and read for the presence/absence of growth at 24 hours. The lowest level tested that provided complete kill (as evidenced by no growth in the microtitre plate) of the test organisms in 15 seconds is the minimum biocidal concentration (MBC).
The synergy of the combinations of the present invention was determined against a bacterium, Esherichia coli (E. coli—ATCC #10536), at a concentration of approximately 1×10^8 bacteria per mL. This microorganism is representative of natural contaminants in many consumer and industrial applications.

In assay [2] the test system is Escherichia coli (E. coli—ATCC #10536). Description: Automated assessment of efficacy in model surfactant base (2.85% sodium cocoyl glycinate + 1.85% sodium lauroamphoacetate, pH 10), 15 seconds exposure, delta OD450/OD590 in D/E quench. The class given is cell-based. The settings on record: for MBC: in 2.85% sodium cocoyl glycinate + 1.85% sodium lauroamphoacetate solution at pH 10, E. coli. The method, then:
Solutions were prepared such that the concentrations of the surfactant components and test actives were 1.1× the final desired concentration in order to allow for dilution with the bacterial inoculum in the test. The solutions were manually adjusted to pH 10.0 by dropwise addition of sodium hydroxide solution, as measured with a pH meter at ambient temperature.
Tests were conducted using standard microtiter plate assays using an automated liquid handling system. 270 μl of the surfactant test solution was pipetted into each well of the microtitre plate and 30 μl of the bacterial suspension was then added. After exactly 15 seconds of bacterial exposure, a 30 μl volume of bacterial cells was withdrawn and transferred to 270 μl of D/E quench solution. After 5 minutes in the D/E quench, the optical density (OD) was measured for each plate in turn at two specific wavelengths (450 nm and 590 nm). These provide a dual check of antimicrobial activity, as the OD450 reading is specific for the yellow colour of D/E quench when bacterial growth is observed, whereas OD590 is specific for the initial purple colour of the D/E quench which is retained if no bacterial growth is observed. After the time zero OD measurements, plates were then incubated at 37° C. overnight (16 hours) before repeating the OD measurements. Delta OD values were calculated by subtracting […]. Bacterial growth is observed as an increase in OD450 and a decrease in ΔOD590. To identify antibacterially efficacious systems (those preventing appreciable bacterial growth after incubation), the following threshold changes in OD readings have been adopted: if (1). OD450 increases by less than 0.2 absorbance unit on incubation and (2). OD590 decreases by less than 0.35 unit on incubation. Conversely, where OD450 increases by more than 0.2 AU and OD590 decreases by more than 0.35 unit after incubation, corresponding to a colour shift from purple to yellow, the test system allows bacterial growth and is not deemed efficacious. Four replicate measurements in the same plate have been made for each test system. The number of replicate wells showing either bacterial growth or no growth is also readily assessed by eye by following the colour change.
Dose responses for individual components and binary mixtures of actives at a fixed concentration ratio were generated by sequential dilution of liquors with further surfactant solution to obtain a series of endpoints.
In some selected cases, the combinations were also tested at the weight ratio 1:1.
The method used was the same as in the above Table.

The test system of assay [3] is Escherichia coli (10536 strain). The assay is described as follows: Antimicrobial efficacy in water, 15 seconds contact, mean bacterial survival NMBS on TSA plates. The class given is cell-based. The settings on record: E. coli, 15 s. As for the experimental part: Antimicrobial efficacy is tested against a representative pathogenic bacterial organism, Gram negative Escherichia coli. Concentrations of actives are expressed in terms of the percentage weight/volume (% w/v) throughout the following Examples. […] Here, OD620 indicates the absorbance of a sample in a cuvette of 1.0 cm path length at a wavelength of 620 nm. This bacterial stock was used for assaying against antimicrobial actives (in triplicate). The following assay describes the testing of 8 materials using 6 dilutions across half of a 96-well micro titre plate (MTP). […] 1M solutions of the test actives were prepared in dimethylsulphoxide (DMSO). […] This MTP was labelled as the “Screening plate”. […] The composition of the neutralising solution was as follows: pancreatic digest of casein, 5.0 g/L; […] 270 μl of tryptone diluent solution was added to all the remaining wells of the Dilution MTP (columns 2-6). […] After a contact time of 15 seconds, the mixtures were quenched by transferring 30 μl volumes of the mixtures into the 270 μl D/E neutralising solution in the prepared dilution plate, using aspiration to mix. […] Mean bacterial survival numbers NMBS (expressed in Log CFU/ml) are obtained by first determining the segment of the TSA plate where the number of bacterial colonies is countable. From the colony number in this segment. NMBS is calculated by the formula: […] DF may range from 1 for the quench, to 6 for the highest dilution). The factor 100/3 is a conversion factor from the volume of the inocula spot to one milliliter. Every assay test was performed in triplicate. The reported mean bacterial survival results are the average of such a triplet, the error is the corresponding standard deviation. […] Such a count of about 7 is generally observed when bacteria are exposed to non-biocidal materials.

The mark [4] stands for this setting: Escherichia coli, ATCC10536, 15 s, read-out: MBC.

`C=C(C)C1CC=C(C)C(O)C1` (centres unmarked) [2-methyl-5-(prop-1-en-2-yl)cyclohex-2-enol] gave an NMBS in assay [1] (0.5% w/v alone, S. aureus) of 7.27 log CFU/ml. For the same compound, the “MBC of the component acting alone (QA or QB; Qa or Qb with the other component at 0)” value with E. coli ATCC #10536 turned out to be 0.7 weight %. The MBC in assay [2] (setting [4]) was determined as 4000 µg/mL. Also, the “No. of replicates showing growth (out of 4)” value in assay [2] (single active at 0.2% w/v), in assay [2] (single active at 0.3% w/v), in assay [2] (single active at 0.4% w/v) and in assay [2] (single active at […] w/v) was 4 in each case. The “Δ OD 590 nm = OD590 (time = 16 hours) − OD590 (time zero), Mean” value (“Δ OD 590 nm = OD590” for short) in assay [2] (single active at 0.2% w/v) was 0.61; in assay [2] (single active at 0.3% w/v), 0.59; in assay [2] (single active at 0.4% w/v), 0.47; in assay [2] (single active at […] w/v), 0.63. The “ΔOD 450 nm = OD450 (time = 16 hours) − OD450 (time zero), Mean” value is −0.51 in assay [2] (single active at 0.2% w/v), −0.50 in assay [2] (single active at 0.3% w/v), −0.35 in assay [2] (single active at 0.4% w/v) and −0.50 in assay [2] (single active at […] w/v).
For the compound `CCCc1ccccc1O` [2-n-propylphenol], the NMBS in assay [1] (0.03% w/v alone, S. aureus) was determined as 7.12 log CFU/ml; in assay [3] (0.06% w/v alone), 7.68 log CFU/ml. Also, the “bacterial kill (in words)” value in assay [1] ([…] 2-propylphenol alone, S. aureus) is given as “Complete bacterial kill”. The MBC in assay [1] (component alone, against S. aureus, in water) is 0.25 % w/v; in assay [2] it was 0.175 % w/v. For the same compound, the “No. of replicates showing growth (out of 4)” value in assay [2] (single active at 0.05% w/v) and in assay [2] (single active at […] w/v) was 4 each time. Besides, the “Δ OD 590 nm = OD590” value is on record as 0.46 in assay [2] (single active at 0.05% w/v) and 0.66 in assay [2] (single active at […] w/v).
Regarding `C=C(C)C1CCC(C)CC1O` (centres unmarked) [isopulegol, 5-methyl-2-(prop-1-en-2-yl)cyclohexanol], the NMBS was 0 log CFU/ml in assay [3] (0.3% w/v alone), 0 log CFU/ml in assay [3] (0.4% w/v alone) and 7.77 log CFU/ml in assay [3] ([…] w/v alone). Further, the MBC in assay [3] (component alone, in water) is 0.3 % (w/v); in assay [2] (setting [4]), above 5000 µg/mL. The “No. of replicates showing growth (out of 4)” value in assay [2] (single active at 0.3% w/v) worked out at 4; in assay [2] (single active at 0.5% w/v), 2; in assay [2] (single active at […] w/v) it was 4. The “Δ OD 590 nm = OD590” value was found to be 0.61 in assay [2] (single active at 0.3% w/v), 0.42 in assay [2] (single active at 0.5% w/v) and 0.59 in assay [2] (single active at […] w/v). Further, the figures for the “ΔOD 450 nm = OD450 (time = 16 hours) − OD450 (time zero), Mean” value in assay [2] (single active at 0.3% w/v), in assay [2] (single active at 0.5% w/v) and in assay [2] (single active at […] w/v) were −0.49, −0.09 and −0.54, respectively.
